# “Also recorded” adds a separate entry of the source. Where two headings read alike, the source gives them in different places.
# What was measured:
# [1] = system: SW620 cell line
# [2] = system: H4c mRNA in K562; format: cell-based, human
# Procedure: (§2) Quantitative real-time RT-PCR was performed using QuantiTect™ SYBR® Green RT-PCR (Qiagen) as described. […] Temperature cycling and detection of the SYBR® Green emission was performed with a Cepheid SmartCycler® system. Statistical analysis was performed on three independent quantitative RT-PCR experiments for each RNA sample.
# [3] = system: human histone H4c gene (radiolabeled PCR product); format: biochemical
# [4] = system: K562; assay: G2/M cell cycle arrest by FACS analysis; format: cell-based, human
# [5] = system: K562; assay: Growth inhibition; format: cell-based, human
# [6] = system: SW620 colon carcinoma cells
# [7] = system: SW620 colon carcinoma cells; assay: Growth arrest / cell counts of SW620 cells; format: cell-based, human; details: for Growth arrest: SW620 cells, based on cell counts, 0.5 μM
# Procedure: (§1) Chemotherapeutic molecules, such as DNA alkylators, topoisomerase inhibitors or histone deacetylase inhibitors, alter the morphology and growth characteristics of cancer cells in culture. […] Cells were transfected with 25-100 nM siRNA using the Silencer™ siRNA Transfection Kit (Ambion, Inc.). Cell growth and morphology change were evaluated 72 or 96 hr after transfection by counting cells in a hemocytometer, and by visually inspecting cells in a phase contrast microscope.
# [8] = system: SW620 cells; assay: Affymetrix U133A microarray analysis of genomic transcription; format: cell-based, human; details: 0.5 μM, 72 hr
# Procedure: Total RNA from SW620 cells from four pooled culture wells from triplicate experiments was isolated using a Qiagen RNeasy™ Midi kit according to the manufacturer's instructions. […]. Microarray experiments were performed at the DNA Array Core Facility of The Scripps Research Institute using Affymetrix Genechip® Human Genome U133A chips. Data were analyzed using Affymetrix MicroArray® Suite (MAS 5.0) software. RMA values for probe sets were analyzed using Significance Analysis of Microarrays (SAM) 1.21 software (Stanford University).
# The effects of polyamide treatment on genomic transcription were monitored by DNA microarray analysis using Affymetrix high-density U133A arrays, which contain oligonucleotides representing approximately 18,000 human genes. […]. Total RNA was isolated, converted into fluorescent cRNA and hybridized to the oligonucleotide microarrays. […]
# [9] = system: SW620 colon carcinoma cells; assay: Cell morphology change of SW620 cells (phase contrast microscopy); format: cell-based, human; details: for Cell morphology change: SW620 cells, 0.5 μM
# Procedure: as §1
# [10] = system: SW620 cells; format: cell-based, human; details: SW620 cells pre-treated, grown without polyamide up to two weeks
# Procedure: Soft agar assays were performed in 6-well culture dishes using SeaPlaque low-melting temperature agarose (Cambrex Bio Science Rocklarid, Inc.). The cell growth medium was supplemented with 20% fetal bovine serum. Cells were treated for 5 days with or without polyamide, harvested by trypsin treatment, and counted using a hemocytometer. […] Cells were gently mixed by pipetting and quickly transferred to the culture dish containing a thin layer (0.5 ml) of solidified 0.5% agarose in medium. Cultures were incubated for 1-2 weeks prior to visualization by microscopy.
# Equal numbers of untreated and polyamide-treated cells were inoculated into soft agar (without polyamide), and grown for up to two weeks.
# [11] = system: SW620 cells; assay: Nuclear structure, Hoechst staining and fluorescence microscopy; details: polyamide 0.5 μM for 72 hours or siRNA transfection
# [12] = system: v-Myb; assay: qRT-PCR of v-Myb expression; format: cell-based
# [13] = system: histone H4c mRNA in SW620 cells; assay: Real-time quantitative RT-PCR of H4c mRNA; format: cell-based, human
# Procedure: as §2
# [14] = SW620, 25-100 nM siRNA, 72 or 96 hr
compound,measurement,setting,value
Cc1cc(C)n2c1C=C1C=CC(CCCCC(=O)N[C@@H](CCNC(=O)c3nc(NC(=O)CCNC(=O)c4nc(NC(=O)c5nccn5C)cn4C)cn3C)C(=O)Nc3cc(C(=O)Nc4cc(C(=O)Nc5cc(C(=O)Nc6cc(C(=O)NCCC(=O)NCCCN(C)C)n(C)c6)n(C)c5)n(C)c4)n(C)c3)=[N+]1[B-]2(F)F [1S-bodipy],entry into the nucleus,[1],entered the nucleus
"CN(C)CCCNC(=O)CCNC(=O)c1cc(NC(=O)c2cc(NC(=O)c3cc(NC(=O)c4nc(NC(=O)C(CCNC(=O)c5cc(NC(=O)c6cc(NC(=O)c7nc(NC(=O)c8nccn8C)cn7C)cn6C)cn5C)NC(=O)CCCc5ccc(N(CCCl)CCCl)cc5)cn4C)cn3C)cn2C)cn1C (stereo not drawn) [ImImPyPy-(R-2,4-Daba^Chl)-ImPyPyPy-β-Dp]",effect on H4c gene transcription,[2],down regulates H4c gene transcription
same,alkylation of the H4c gene in vitro,[3]; sites of the form 5′-WGGWCN-3′,alkylate multiple sites in the H4c gene
same,cell cycle arrest,[4],causes growth and cell cycle arrest
same,Growth arrest,[5],causes growth and cell cycle arrest
Cc1cc(C)n2c1C=C1C=CC(CCCCC(=O)N[C@H](CCNC(=O)c3nc(NC(=O)CCNC(=O)c4nc(NC(=O)c5nccn5C)cn4C)cn3C)C(=O)Nc3cc(C(=O)Nc4cc(C(=O)Nc5cc(C(=O)Nc6cc(C(=O)NCCC(=O)NCCCN(C)C)n(C)c6)n(C)c5)n(C)c4)n(C)c3)=[N+]1[B-]2(F)F [1R-bobipy],entry into the nucleus,[1],entered the nucleus
"O=C(O)CCCc1ccc(N(CCCl)CCCl)cc1 [Chl, chlorambucil, reference compound]",cytotoxicity,[6]; concentrations higher than 0.5 μM,cytotoxic at higher concentrations
same,Growth arrest,[7],without effect
same,genes whose transcription was affected,[8],a large number of genes
same,Cell morphology change,[9],without effect
same,growth in soft agar,[10],formed colonies
CN(C)CCCNC(=O)CCNC(=O)c1cc(NC(=O)c2cc(NC(=O)c3cc(NC(=O)c4cc(NC(=O)[C@@H](CCNC(=O)c5nc(NC(=O)c6nc(NC(=O)c7cc(NC(=O)c8nccn8C)cn7C)cn6C)cn5C)NC(=O)CCCc5ccc(N(CCCl)CCCl)cc5)cn4C)cn3C)cn2C)cn1C [6-Chl],Growth arrest,[7],abolished the morphological change and growth arrest; also recorded: slight
same,Cell morphology change,[9],abolished the morphological change and growth arrest and no
5′-GGGCAUUACAAAACCGGCUtt-3′ [HIST1H4C-1],cell number / growth after siRNA transfection,[7]; [14],decreased
same,reduction in cell number relative to untreated cells,"[7]; SW620, after 3 days",73 (+1-5) %
same,Relative cell number,"[7]; SW620, siRNA transfection, untreated = 100%",37%
same,effect on size of the cell nucleus,[11],caused a similar enlargement of the cell nucleus
same,effect on v-Myb transcription / expression,[12],down regulated v-Myb transcription
same,down regulation of H4c mRNA compared to scrambled sequence siRNA,"[13]; SW620, quantitative RT-PCR",~8.6 fold
same,down regulation of H4c transcription sufficient to cause growth arrest,[13]; SW620 cells,2 fold
same,cell morphology change after siRNA transfection,[9]; [14],caused a morphological change
CN(C)CCCNC(=O)CCNC(=O)c1cc(NC(=O)c2cc(NC(=O)c3cc(NC(=O)c4cc(NC(=O)[C@@H](CCNC(=O)c5cc(NC(=O)c6nc(NC(=O)c7cc(NC(=O)c8nccn8C)cn7C)cn6C)cn5C)NC(=O)CCCc5ccc(N(CCCl)CCCl)cc5)cn4C)cn3C)cn2C)cn1C [5-Chl],cytotoxicity,[6],highly cytotoxic
same,Growth arrest,[7],cytotoxic
same,alkylation of the H4c PCR product on either strand,[3],fail to significantly alkylate
"CN(C)CCCNC(=O)CCNC(=O)c1cc(NC(=O)c2nc(NC(=O)CCNC(=O)c3cc(NC(=O)c4cc(NC(=O)[C@@H](CCNC(=O)c5cc(NC(=O)c6nc(NC(=O)CCNC(=O)c7cc(NC(=O)c8nccn8C)cn7C)cn6C)cn5C)NC(=O)CCCc5ccc(N(CCCl)CCCl)cc5)cn4C)cn3C)cn2C)cn1C [2-Chl, ImPy-βImPy-(R-2,4-Daba^Chl)-PyPyβImPy-βDp]",Growth arrest,[7],no
same,Cell morphology change,[9],no
CN(C)CCCNC(=O)CCNC(=O)c1cc(NC(=O)c2cc(NC(=O)c3cc(NC(=O)c4cc(NC(=O)[C@@H](CCNC(=O)c5cc(NC(=O)c6cc(NC(=O)c7cc(NC(=O)c8nccn8C)cn7C)cn6C)cn5C)NC(=O)CCCc5ccc(N(CCCl)CCCl)cc5)cn4C)cn3C)cn2C)cn1C [4-Chl],cytotoxicity,[6],highly cytotoxic
same,Growth arrest,[7],cytotoxic
same,alkylation of the H4c PCR product on either strand,[3],fail to significantly alkylate
